Molecules are shown by their SMILES.

The species entered for this experiment is Homo sapiens. The experiment is described as follows: Binding affinity to His6-tagged/Tb-labelled 14-3-3gamma (unknown origin)/His6-SUMO-tagged/AF647-labelled SLP76 (unknown origin) expressed in Noco21 (DE3) cells assessed as fold change in KD improvement by HTRF assay. Background: TR-FRET usually uses a lanthanide donor and a delayed reading to cut background.
In the case of `O=C(Cn1nc(C(F)(F)F)c2c1CCCC2)Nc1ccc(Cl)c(Cl)c1`, the fold change (FC) was 14.6.

Regarding `Fc1ccc(OCc2nn3c(Cn4cnc5ccccc54)nnc3s2)cc1`, the fold change (FC) is 3.5.

As to `O=C1OC[C@@H]2CCN(Cc3ccccc3)Cc3ccccc3N12`, the fold change (FC) was found to be 3.3.

On to `COc1ccc(C(=O)N2C[C@@H]3CN(CCO3)C(=O)[C@@H]3C[C@@H](CN3Cc3ccc4c(c3)OCO4)NC(=O)C[C@@H]3O[C@H](C2)[C@@H](O)[C@H]3O)cc1`, for which the fold change (FC) was 3.4.

For the compound `S=c1[nH]nc(Cn2nnc3ccccc32)o1`, the fold change (FC) was 1.1.

On to `CC1=CCC2COC(C[N+]3(C)CCCCC3)C1C2` (configuration not stated), for which the fold change (FC) was 4.7.

In the case of `CC(C)CNC(=O)c1ccc2c(c1)nc1n2CCN(C(C)C)C1=O`, the fold change (FC) is 5.2.

For `CC(C)N1CC[C@H]2COC(=O)N2c2cc(F)ccc2C1`, the fold change (FC) came out at 4.1.

Take `c1cc(-c2nnc3scnn23)ccn1`: the fold change (FC) was 4.4.

For the compound `O=C(c1ccc(Cl)cc1)n1c(Cn2nnc(-c3cccc4ccccc34)n2)n[nH]c1=S`, the fold change (FC) worked out at 1.8.

`COc1ccccc1-c1nnc2scnn12`: the fold change (FC) was 11.

With `CC1=Nn2c(nnc2-c2ccoc2C)SC1`, the fold change (FC) was 1.4.

The values are drawn from ChEMBL document CHEMBL5136967, “Identification of molecular glues of the SLP76/14-3-3 protein-protein interaction” (RSC Med Chem, 2021).
